Laboratory results reported in ChEMBL document CHEMBL5331134, “Identification of Brain-Penetrant ATP-Competitive mTOR Inhibitors for CNS Syndromes” (J Med Chem, 2023).

Key:
[1] = Volume of distribution at steady state in Sprague-Dawley rat at 3 mg/kg, po and 1 mg/kg, iv measured upto 24 hrs by HPLC-MS analysis; assay type: ADME, organism-based; settings: in vivo
[2] = Drug concentration in C57BL/6 mouse plasma at 3 mg/kg, po measured after 3 hrs; assay type: ADME, organism-based
Cytochrome P450 3A4 [3] = target: T1, Cytochrome P450 3A4 (Homo sapiens, UniProt P08684); assay: Inhibition of CYP3A4 (unknown origin) assessed as Kobs; assay type: ADME
[4] = Drug concentration in C57BL/6 mouse brain at 10 mg/kg, po measured after 3 hrs; assay type: ADME, organism-based; settings: read-out: Ct
[5] = MRT(0 to t) in Sprague-Dawley rat at 3 mg/kg, po and 1 mg/kg, iv measured upto 24 hrs by HPLC-MS analysis; assay type: ADME, organism-based; settings: in vivo
[6] = Drug concentration in C57BL/6 mouse plasma at 10 mg/kg, po measured after 24 hrs; assay type: ADME, organism-based
[7] = Tmax in C57BL/6 mouse at 1 mg/kg, iv and 3 mg/kg, ip measured upto 24 hrs by HPLC-MS analysis; assay type: ADME, organism-based; settings: in vivo
[8] = Genotoxicity in human TK6 cells assessed as micronuclei formation by micronucleus test; assay type: toxicity, cell-based
[9] = Drug concentration in C57BL/6 mouse brain at 30 mg/kg, po measured after 24 hrs; assay type: ADME, organism-based; settings: read-out: Ct
[10] = target: Serine/threonine-protein kinase mTOR (Mus musculus) (UniProt Q9JLN9); assay: Inhibition of mTOR in Tsc1 knockout mouse neurons assessed as reduction in phosphorylated S6 level incubated for 4 hrs by Hoechst staining based immunofluorescence analysis; assay type: cell-based; settings: Neuron, dose 5.0 µM
[11] = Half life in Sprague-Dawley rat at 3 mg/kg, po and 1 mg/kg, iv measured upto 24 hrs by HPLC-MS analysis; assay type: ADME, organism-based; settings: in vivo
[12] = AUC(0 to t) in C57BL/6 mouse at 3 mg/kg, ip measured upto 24 hrs by HPLC-MS analysis; assay type: ADME, organism-based; set-up: time < 24 hrs, dose 3 mg/kg, route ip; settings: in vivo
[13] = Ratio of drug concentration in brain to plasma in C57BL/6 mouse at 3 mg/kg, po measured at 1 hr; assay type: ADME, organism-based; settings: read-out: BPR
[14] = Apparent permeability across basolateral to apical side in MDCK-MDR1 cells; assay type: ADME, cell-based, Canis lupus familiaris; settings: dog
[15] = AUC(0 to t) in C57BL/6 mouse at 1 mg/kg, iv measured upto 24 hrs by HPLC-MS analysis; assay type: ADME, organism-based; set-up: time < 24 hrs, dose 1 mg/kg, route iv; settings: in vivo
[16] = Drug concentration in C57BL/6 mouse plasma at 10 mg/kg, po measured after 3 hrs; assay type: ADME, organism-based
[17] = Ratio of drug concentration in brain to plasma in C57BL/6 mouse at 1 mg/kg, po measured at 8 hrs; assay type: ADME, organism-based; settings: read-out: BPR
[18] = target: 3',5'-cyclic-AMP phosphodiesterase 4D (Homo sapiens, UniProt Q08499); assay: Inhibition of PDE4D (unknown origin)
[19] = Apparent permeability across apical to basolateral side in MDCK-MDR1 cells; assay type: ADME, cell-based, Canis lupus familiaris; settings: dog
[20] = Drug concentration in C57BL/6 mouse brain at 10 mg/kg, po measured after 1 hr; assay type: ADME, organism-based; settings: read-out: Ct
[21] = Drug concentration in C57BL/6 mouse brain at 1 mg/kg, po measured after 1 hr; assay type: ADME, organism-based; settings: read-out: Ct
[22] = Bioavailability in C57BL/6 mouse at 1 mg/kg, iv and 3 mg/kg, ip measured upto 24 hrs by HPLC-MS analysis; assay type: ADME, organism-based; settings: in vivo
[23] = Ratio of drug concentration in brain to plasma in C57BL/6 mouse at 1 mg/kg, po measured at 1 hr; assay type: ADME, organism-based; settings: read-out: BPR
[24] = Tmax in Sprague-Dawley rat at 3 mg/kg, po and 1 mg/kg, iv measured upto 24 hrs by HPLC-MS analysis; assay type: ADME, organism-based; settings: in vivo
[25] = Metabolic stability in rat liver microsomes assessed as intrinsic clearance at 1 uM incubated for 30 mins in presence of NADPH by LC-MS/MS analysis; assay type: ADME, Microsome; settings: read-out: CLH
Cytochrome P450 2C9 = Cytochrome P450 2C9 (Homo sapiens, UniProt P11712); assay: Inhibition of CYP2C9 (unknown origin); assay type: ADME
Cytochrome P450 3A4 [26] = target: T1, Cytochrome P450 3A4; assay: Inhibition of CYP3A4 (unknown origin); assay type: ADME
[27] = Drug concentration in C57BL/6 mouse brain at 30 mg/kg, po measured after 3 hrs; assay type: ADME, organism-based; settings: read-out: Ct
[28] = Plasma protein binding in C57BL/6 mouse plasma at 5 uM measured for 4 hrs by equilibrium dialysis method based LC/MS/MS analysis; assay type: ADME, cell-free; settings: read-out: PPB (converted)
[29] = Drug concentration in C57BL/6 mouse plasma at 10 mg/kg, po measured after 1 hr; assay type: ADME, organism-based
[30] = Drug concentration in C57BL/6 mouse brain at 3 mg/kg, po measured after 3 hrs; assay type: ADME, organism-based; settings: read-out: Ct
[31] = Ratio of drug concentration in brain to plasma in C57BL/6 mouse at 1 mg/kg, po measured at 3 hrs; assay type: ADME, organism-based; settings: read-out: BPR
[32] = target: Phosphatidylinositol 4,5-bisphosphate 3-kinase catalytic subunit gamma isoform (Homo sapiens, UniProt P48736); assay: Inhibition of PI3Kgamma (unknown origin)
[33] = Drug concentration in C57BL/6 mouse plasma at 30 mg/kg, po measured after 24 hrs; assay type: ADME, organism-based
[34] = Drug concentration in C57BL/6 mouse brain at 1 mg/kg, po measured after 24 hrs; assay type: ADME, organism-based; settings: read-out: Ct
[35] = Half life in C57BL/6 mouse at 1 mg/kg, iv and 3 mg/kg, ip measured upto 24 hrs by HPLC-MS analysis; assay type: ADME, organism-based; settings: in vivo
[36] = Ratio of drug concentration in brain to plasma in Sprague-Dawley rat at 3 mg/kg, po measured at 1 hr by HPLC-MS analysis; assay type: ADME, organism-based; settings: brain and plasma, read-out: BPR
[37] = Metabolic stability in dog liver microsomes assessed as intrinsic clearance at 1 uM incubated for 30 mins in presence of NADPH by LC-MS/MS analysis; assay type: ADME, Canis lupus familiaris, Microsome; settings: read-out: CLH
[38] = Ratio of drug concentration in brain to plasma in C57BL/6 mouse at 3 mg/kg, po measured at 8 hrs; assay type: ADME, organism-based; settings: read-out: BPR
[39] = AUC(0 to t) in Sprague-Dawley rat at 3 mg/kg, po measured upto 24 hrs by HPLC-MS analysis; assay type: ADME, organism-based; set-up: dose 3 mg/kg, time < 24 hrs, route po; settings: in vivo
[40] = Cmax in Beagle dog at 1 mg/kg, po measured upto 24 hrs by LC/MS/MS analysis; assay type: ADME, organism-based, Canis lupus familiaris; set-up: dose 1 mg/kg, time < 24 hrs, route po; settings: in vivo
[41] = Clearance in C57BL/6 mouse at 1 mg/kg, iv and 3 mg/kg, ip measured upto 24 hrs by HPLC-MS analysis; assay type: ADME, organism-based; settings: in vivo
[42] = AUC(0 to t) in cynomolgus monkey at 0.3 mg/kg, po measured upto 24 hrs by LC/MS/MS analysis; assay type: ADME, organism-based, Macaca fascicularis; set-up: dose 0.3 mg/kg, time < 24 hrs, route po; settings: in vivo
[43] = AUC(0 to t) in Beagle dog at 1 mg/kg, po measured upto 24 hrs by LC/MS/MS analysis; assay type: ADME, organism-based, Canis lupus familiaris; set-up: time < 24 hrs, dose 1 mg/kg, route po; settings: in vivo
[44] = Tmax in cynomolgus monkey at 0.3 mg/kg, po measured upto 24 hrs by LC/MS/MS analysis; assay type: ADME, organism-based, Macaca fascicularis; settings: in vivo
[45] = AUC(0 to t) in Beagle dog at 0.3 mg/kg, iv measured upto 24 hrs by LC/MS/MS analysis; assay type: ADME, organism-based, Canis lupus familiaris; set-up: time < 24 hrs, dose 0.3 mg/kg, route iv; settings: in vivo

T1 sequence (P08684 whole entry): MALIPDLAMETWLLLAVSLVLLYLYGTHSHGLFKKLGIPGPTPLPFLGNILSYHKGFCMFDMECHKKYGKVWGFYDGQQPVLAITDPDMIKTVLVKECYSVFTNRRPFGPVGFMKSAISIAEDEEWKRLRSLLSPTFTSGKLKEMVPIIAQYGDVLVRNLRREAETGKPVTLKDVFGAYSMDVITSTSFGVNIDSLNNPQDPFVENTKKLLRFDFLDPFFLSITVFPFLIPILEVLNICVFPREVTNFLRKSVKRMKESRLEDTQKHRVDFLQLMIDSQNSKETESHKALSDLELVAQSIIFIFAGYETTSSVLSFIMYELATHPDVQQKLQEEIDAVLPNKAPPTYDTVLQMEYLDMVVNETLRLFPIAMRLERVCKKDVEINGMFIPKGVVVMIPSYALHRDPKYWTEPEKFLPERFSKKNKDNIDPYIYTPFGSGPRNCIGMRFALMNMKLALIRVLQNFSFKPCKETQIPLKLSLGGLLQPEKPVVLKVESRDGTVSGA
Phosphatidylinositol 4,5-bisphosphate 3-kinase catalytic subunit gamma isoform, sequence (P48736 whole entry, canonical isoform): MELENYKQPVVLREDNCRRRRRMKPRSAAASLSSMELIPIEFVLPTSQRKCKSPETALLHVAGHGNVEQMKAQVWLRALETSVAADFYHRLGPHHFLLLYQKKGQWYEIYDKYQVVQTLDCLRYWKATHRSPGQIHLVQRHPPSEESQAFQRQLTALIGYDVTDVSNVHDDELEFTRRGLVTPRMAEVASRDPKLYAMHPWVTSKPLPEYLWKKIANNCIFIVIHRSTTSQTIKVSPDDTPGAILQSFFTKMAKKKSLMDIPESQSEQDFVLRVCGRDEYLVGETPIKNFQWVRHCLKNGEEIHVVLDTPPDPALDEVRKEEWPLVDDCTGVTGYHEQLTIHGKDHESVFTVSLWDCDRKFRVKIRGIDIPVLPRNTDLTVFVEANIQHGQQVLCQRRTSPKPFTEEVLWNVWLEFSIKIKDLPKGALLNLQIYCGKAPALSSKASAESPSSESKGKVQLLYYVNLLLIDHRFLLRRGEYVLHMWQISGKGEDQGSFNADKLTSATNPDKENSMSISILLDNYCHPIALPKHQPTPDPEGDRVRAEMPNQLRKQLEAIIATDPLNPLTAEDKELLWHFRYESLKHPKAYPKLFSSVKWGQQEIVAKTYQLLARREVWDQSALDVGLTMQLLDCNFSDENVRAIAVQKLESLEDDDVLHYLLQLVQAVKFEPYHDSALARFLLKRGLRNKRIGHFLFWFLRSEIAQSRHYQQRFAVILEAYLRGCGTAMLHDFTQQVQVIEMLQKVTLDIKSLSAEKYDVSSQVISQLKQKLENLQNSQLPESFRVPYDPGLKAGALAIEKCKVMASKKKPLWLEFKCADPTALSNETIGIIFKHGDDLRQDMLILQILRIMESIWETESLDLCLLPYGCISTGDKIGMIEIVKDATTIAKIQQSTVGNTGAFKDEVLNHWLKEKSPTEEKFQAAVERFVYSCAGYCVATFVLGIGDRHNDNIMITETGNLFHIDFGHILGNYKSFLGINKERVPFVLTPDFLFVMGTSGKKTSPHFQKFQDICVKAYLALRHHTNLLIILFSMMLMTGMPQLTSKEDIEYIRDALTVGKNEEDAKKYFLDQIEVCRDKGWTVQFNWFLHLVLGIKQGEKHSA
Cytochrome P450 2C9, sequence (P11712 whole entry): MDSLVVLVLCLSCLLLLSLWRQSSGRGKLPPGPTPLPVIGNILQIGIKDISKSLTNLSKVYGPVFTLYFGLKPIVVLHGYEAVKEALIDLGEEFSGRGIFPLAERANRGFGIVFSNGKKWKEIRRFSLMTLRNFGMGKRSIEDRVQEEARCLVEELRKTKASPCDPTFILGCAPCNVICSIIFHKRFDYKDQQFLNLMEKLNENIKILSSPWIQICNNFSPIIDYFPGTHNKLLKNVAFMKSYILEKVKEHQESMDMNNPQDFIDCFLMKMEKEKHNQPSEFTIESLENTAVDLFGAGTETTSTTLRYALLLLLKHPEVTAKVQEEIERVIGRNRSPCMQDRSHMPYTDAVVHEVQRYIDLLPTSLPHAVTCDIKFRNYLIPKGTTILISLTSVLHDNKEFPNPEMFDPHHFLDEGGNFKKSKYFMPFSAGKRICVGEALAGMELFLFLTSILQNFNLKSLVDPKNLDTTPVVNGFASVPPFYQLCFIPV
3',5'-cyclic-AMP phosphodiesterase 4D, sequence (Q08499 whole entry): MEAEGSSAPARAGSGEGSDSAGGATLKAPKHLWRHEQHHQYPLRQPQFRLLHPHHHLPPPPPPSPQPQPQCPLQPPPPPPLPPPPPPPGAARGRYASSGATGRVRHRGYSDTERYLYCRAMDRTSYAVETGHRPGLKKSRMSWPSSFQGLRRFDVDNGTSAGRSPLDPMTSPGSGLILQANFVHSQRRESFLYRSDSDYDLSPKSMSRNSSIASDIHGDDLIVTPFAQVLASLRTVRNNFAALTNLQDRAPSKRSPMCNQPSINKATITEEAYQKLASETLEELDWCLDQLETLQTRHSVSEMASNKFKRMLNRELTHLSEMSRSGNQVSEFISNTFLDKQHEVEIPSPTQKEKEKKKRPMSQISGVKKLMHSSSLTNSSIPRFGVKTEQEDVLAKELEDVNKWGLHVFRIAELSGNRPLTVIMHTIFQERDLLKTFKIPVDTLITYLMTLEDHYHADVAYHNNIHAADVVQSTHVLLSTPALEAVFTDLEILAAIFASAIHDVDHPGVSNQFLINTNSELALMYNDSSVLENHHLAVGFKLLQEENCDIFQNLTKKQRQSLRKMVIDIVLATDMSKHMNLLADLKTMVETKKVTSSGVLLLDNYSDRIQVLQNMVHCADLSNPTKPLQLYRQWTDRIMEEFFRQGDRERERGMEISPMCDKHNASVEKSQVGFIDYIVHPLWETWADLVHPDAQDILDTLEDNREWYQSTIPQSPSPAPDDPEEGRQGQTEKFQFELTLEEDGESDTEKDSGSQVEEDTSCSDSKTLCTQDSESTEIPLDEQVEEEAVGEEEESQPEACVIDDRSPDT

| SMILES | Vdss [1] | Kobs (Cytochrome P450 3A4 [3]) | concentration at 3 h [4] | MRT last at 24 h [5] | concentration at 24 h [6] | Tmax [7] | Activity [8] | concentration at 24 h [9] | inhibition [10] | half-life [11] | AUC(0-t) at 24 h [12] | Papp B→A [14] | concentration at 3 h [16] | IC50 [18] | Papp A→B [19] | concentration at 1 h [20] | bioavailability [22] | Tmax [24] | microsomal CLint at 1 µM [25] | IC50 (Cytochrome P450 2C9) | other results |
| --- | --- | --- | --- | --- | --- | --- | --- | --- | --- | --- | --- | --- | --- | --- | --- | --- | --- | --- | --- | --- | --- |
| C[C@@H]1COCCN1c1cc(N2CCOC[C@@H]2C)nc2[nH]c(-c3cscn3)nc12 | 2.3 L/kg | 0.021 min⁻¹ | 3250 nM | 2.2 h | 211 nM | 1.5 h | Non-Toxic | 4650 nM | Dose-Dependent Effect | 3 h | 11.7 µM·h | 12 ×10⁻⁶ cm/s | 5520 nM | 6.3 µM | 14 ×10⁻⁶ cm/s | 4270 nM | 112% | 1.5 h | 21 µL/min/mg | > 50 µM | concentration at 3 h [2]: 2050 nM; Kp at 1 h [13]: 0.51; AUCt ([15]; mouse, 24 h): 10.377 µM·h; Kp at 8 h [17]: 0.37; concentration at 1 h [21]: 388 nM; Kp at 1 h [23]: 0.51; IC50 (Cytochrome P450 3A4 [26]): > 50 µM; concentration at 3 h [27]: 6320 nM; fraction unbound at 4 h, 5 µM [28]: 0.068; concentration at 1 h [29]: 4420 nM; concentration at 3 h [30]: 930 nM; Kp at 3 h [31]: 0.36; IC50 [32]: > 10 µM; concentration at 24 h [33]: 7020 nM; concentration at 24 h [34]: 7 nM; half-life [35]: 2.7 h; Kp at 1 h [36]: 0.33; microsomal CLint at 1 µM [37]: 10 µL/min/mg; Kp at 8 h [38]: 0.29; AUC(0-t) at 24 h [39]: 6.45 µM·h |
| C[C@@H]1COCCN1c1cc(N2CCOC[C@@H]2C)nc2[nH]c(-c3ccccn3)nc12 | 0.7 L/kg | 0.032 min⁻¹ | 1110 nM | 2.3 h | 4 nM | 0.4 h | Non-Toxic | 790 nM | Dose-Dependent Effect | 2.6 h | 6.66 µM·h | 20.1 ×10⁻⁶ cm/s | 2160 nM | 17 µM | 41.5 ×10⁻⁶ cm/s | 1490 nM | 98% | 1.3 h | 27 µL/min/mg | > 50 µM | AUC(0-t) at 24 h ([15]; C57BL/6, mouse): 2.22 µM·h; Cmax [40]: 34 nM; clearance [41]: 19 mL/min/kg; AUC(0-t) at 24 h [42]: 0.125 µM·h; IC50 (Cytochrome P450 3A4 [26]): > 50 µM; concentration at 3 h [27]: 2720 nM; fraction unbound at 4 h, 5 µM [28]: 0.065; concentration at 1 h [29]: 2480 nM; IC50 [32]: > 10 µM; AUC(0-t) at 24 h [43]: 0.056 µM·h; concentration at 24 h [33]: 1120 nM; half-life [35]: 2 h; Tmax [44]: 1.2 h; Kp at 1 h [36]: 0.72; microsomal CLint at 1 µM [37]: 19 µL/min/mg; AUC(0-t) at 24 h [39]: 29.6 µM·h; AUC(0-t) at 24 h [45]: 0.147 µM·h |
